PubChem BioAssay (NCI)
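96-well plates; 48 h exposure; 5 concentrations. Endpoints by linear interpolation between flanking doses. Not reached: highest tested concentration assigned. TGI marks complete inhibition of growth.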

How the values were obtained:
Experiment in all cases: NCI tumour cell line growth inhibition, 48 h
[1] = tested on: 786-0 renal
[2] = tested on: A549 NSCLC
[3] = tested on: ACHN renal
[4] = tested on: BT-549 breast
[5] = tested on: CCRF-CEM leukemia
[6] = tested on: COLO 205 colon
[7] = tested on: DU-145 prostate
[8] = tested on: EKVX NSCLC
[9] = tested on: HCC-2998 colon
[10] = tested on: HCT-116 colon
[11] = tested on: HCT-15 colon
[12] = tested on: HL-60(TB) leukemia
[13] = tested on: HOP-62 NSCLC
[14] = tested on: HOP-92 NSCLC
[15] = tested on: HS 578T breast
[16] = tested on: HT29 colon
[17] = tested on: IGROV1 ovarian
[18] = tested on: K-562 leukemia
[19] = tested on: KM12 colon
[20] = tested on: LOX IMVI melanoma
[21] = tested on: M14 melanoma
[22] = tested on: MALME-3M melanoma
[23] = tested on: MCF7 breast
[24] = tested on: MDA-MB-231 breast
[25] = tested on: MDA-MB-435
[26] = tested on: MDA-N
[27] = tested on: MOLT-4 leukemia
[28] = tested on: NCI-H226 lung
[29] = tested on: NCI-H23 lung
[30] = tested on: NCI-H460 lung
[31] = tested on: NCI-H522 lung
[32] = tested on: NCI/ADR-RES ovarian
[33] = tested on: OVCAR-3 ovarian
[34] = tested on: OVCAR-4 ovarian
[35] = tested on: OVCAR-5 ovarian
[36] = tested on: OVCAR-8 ovarian
[37] = tested on: PC-3 prostate
[38] = tested on: RXF 393 renal
[39] = tested on: SF-268 CNS
[40] = tested on: SF-539 CNS
[41] = tested on: SK-MEL-2 melanoma
[42] = tested on: SK-MEL-28 melanoma
[43] = tested on: SK-MEL-5 melanoma
[44] = tested on: SK-OV-3 ovarian
[45] = tested on: SN12C renal
[46] = tested on: SNB-19 CNS
[47] = tested on: SNB-75 CNS
[48] = tested on: SR leukemia
[49] = tested on: SW-620 colon
[50] = tested on: T-47D breast
[51] = tested on: TK-10 renal
[52] = tested on: U251 CNS
[53] = tested on: UACC-257 melanoma
[54] = tested on: UO-31 renal
[55] = tested on: A498 renal
[56] = tested on: CAKI-1 renal
[57] = tested on: SF-295 CNS
[58] = tested on: UACC-62 melanoma
[59] = tested on: RPMI-8226 leukemia

CCN(CC)C(=O)Cn1c(-c2ccccc2)cc2ccccc21
TGI [1]: > 100 µM
TGI [2]: > 100 µM
TGI [3]: > 100 µM
TGI [4]: 94.5 µM
TGI [5]: > 100 µM
TGI [6]: 34 µM
TGI [7]: > 100 µM
TGI [8]: > 100 µM
TGI [9]: > 100 µM
TGI [10]: > 100 µM
TGI [11]: > 100 µM
TGI [12]: > 100 µM
TGI [13]: > 100 µM
TGI [14]: 77.7 µM
TGI [15]: > 100 µM
TGI [16]: > 100 µM
TGI [17]: > 100 µM
TGI [18]: > 100 µM
TGI [19]: > 100 µM
TGI [20]: > 100 µM
TGI [21]: > 100 µM
TGI [22]: > 100 µM
TGI [23]: > 100 µM
TGI [24]: > 100 µM
TGI [25]: > 100 µM
TGI [26]: > 100 µM
TGI [27]: 42.7 µM
TGI [28]: > 100 µM
TGI [29]: > 100 µM
TGI [30]: > 100 µM
TGI [31]: > 100 µM
TGI [32]: > 100 µM
TGI [33]: > 100 µM
TGI [34]: > 100 µM
TGI [35]: > 100 µM
TGI [36]: > 100 µM
TGI [37]: > 100 µM
TGI [38]: 97.4 µM
TGI [39]: > 100 µM
TGI [40]: > 100 µM
TGI [41]: > 100 µM
TGI [42]: > 100 µM
TGI [43]: 31.9 µM
TGI [44]: > 100 µM
TGI [45]: > 100 µM
TGI [46]: > 100 µM
TGI [47]: > 100 µM
TGI [48]: > 100 µM
TGI [49]: > 100 µM
TGI [50]: > 100 µM
TGI [51]: > 100 µM
TGI [52]: > 100 µM
TGI [53]: > 100 µM
TGI [54]: 64.5 µM

N#CC(N)c1ccc(OCCCCCCCCCCOc2ccc(C(N)C#N)cc2)cc1 (centres undefined)
TGI [1]: > 100 µM
TGI [55]: > 100 µM
TGI [2]: > 100 µM
TGI [3]: > 100 µM
TGI [4]: > 100 µM
TGI [56]: > 100 µM
TGI [5]: 67.8 µM
TGI [6]: > 100 µM
TGI [7]: > 100 µM
TGI [8]: > 100 µM
TGI [9]: > 100 µM
TGI [10]: > 100 µM
TGI [11]: > 100 µM
TGI [12]: > 100 µM
TGI [14]: > 100 µM
TGI [15]: > 100 µM
TGI [16]: > 100 µM
TGI [17]: > 100 µM
TGI [18]: > 100 µM
TGI [19]: > 100 µM
TGI [20]: > 100 µM
TGI [21]: > 100 µM
TGI [22]: > 100 µM
TGI [23]: > 100 µM
TGI [24]: > 100 µM
TGI [25]: > 100 µM
TGI [26]: > 100 µM
TGI [27]: > 100 µM
TGI [28]: > 100 µM
TGI [29]: > 100 µM
TGI [30]: > 100 µM
TGI [31]: > 100 µM
TGI [32]: > 100 µM
TGI [33]: > 100 µM
TGI [34]: > 100 µM
TGI [35]: > 100 µM
TGI [36]: > 100 µM
TGI [37]: > 100 µM
TGI [38]: > 100 µM
TGI [39]: > 100 µM
TGI [57]: > 100 µM
TGI [40]: > 100 µM
TGI [41]: > 100 µM
TGI [42]: > 100 µM
TGI [43]: > 100 µM
TGI [44]: > 100 µM
TGI [45]: > 100 µM
TGI [46]: > 100 µM
TGI [49]: > 100 µM
TGI [50]: > 100 µM
TGI [51]: > 100 µM
TGI [52]: > 100 µM
TGI [53]: > 100 µM
TGI [58]: > 100 µM
TGI [54]: > 100 µM

COc1cc(/C=C2/SC(c3ccccc3)N(Cc3ccccc3)C2=O)cc(OC)c1OC (centres undefined)
TGI [1]: > 100 µM
TGI [55]: > 100 µM
TGI [2]: > 100 µM
TGI [3]: > 100 µM
TGI [4]: > 100 µM
TGI [56]: > 100 µM
TGI [6]: 45.9 µM
TGI [7]: > 100 µM
TGI [8]: > 100 µM
TGI [9]: > 100 µM
TGI [10]: > 100 µM
TGI [11]: > 100 µM
TGI [13]: > 100 µM
TGI [14]: > 100 µM
TGI [15]: > 100 µM
TGI [16]: > 100 µM
TGI [18]: > 100 µM
TGI [19]: > 100 µM
TGI [20]: > 100 µM
TGI [21]: > 100 µM
TGI [22]: > 100 µM
TGI [23]: > 100 µM
TGI [24]: > 100 µM
TGI [25]: > 100 µM
TGI [26]: > 100 µM
TGI [27]: 63.2 µM
TGI [28]: > 100 µM
TGI [29]: > 100 µM
TGI [30]: > 100 µM
TGI [31]: 63 µM
TGI [32]: > 100 µM
TGI [33]: > 100 µM
TGI [34]: > 100 µM
TGI [35]: > 100 µM
TGI [36]: > 100 µM
TGI [59]: 75.1 µM
TGI [38]: 72.3 µM
TGI [39]: > 100 µM
TGI [57]: > 100 µM
TGI [41]: > 100 µM
TGI [42]: > 100 µM
TGI [43]: 28 µM
TGI [44]: > 100 µM
TGI [45]: > 100 µM
TGI [46]: > 100 µM
TGI [48]: 45.1 µM
TGI [49]: > 100 µM
TGI [50]: > 100 µM
TGI [51]: > 100 µM
TGI [52]: > 100 µM
TGI [53]: > 100 µM
TGI [58]: > 100 µM
TGI [54]: > 100 µM

CN(C)CCNc1nc2ccccc2c2c1CCCC2
TGI [1]: 34.2 µM
TGI [55]: 35.8 µM
TGI [2]: > 100 µM
TGI [3]: 65.3 µM
TGI [4]: > 100 µM
TGI [56]: 44.7 µM
TGI [6]: > 100 µM
TGI [7]: > 100 µM
TGI [8]: > 100 µM
TGI [9]: 25.6 µM
TGI [10]: 30.2 µM
TGI [11]: > 100 µM
TGI [12]: 32.3 µM
TGI [13]: 35.8 µM
TGI [14]: 58.3 µM
TGI [15]: > 100 µM
TGI [16]: 95.1 µM
TGI [17]: 38.3 µM
TGI [18]: 39.9 µM
TGI [19]: 41.4 µM
TGI [20]: 34.7 µM
TGI [21]: 32.5 µM
TGI [22]: 30.1 µM
TGI [23]: 29.1 µM
TGI [24]: 33.6 µM
TGI [25]: 36.1 µM
TGI [26]: 33.9 µM
TGI [27]: 61.8 µM
TGI [28]: 55.7 µM
TGI [29]: > 100 µM
TGI [30]: 31 µM
TGI [31]: 33.1 µM
TGI [32]: > 100 µM
TGI [33]: > 100 µM
TGI [34]: > 100 µM
TGI [35]: > 100 µM
TGI [36]: > 100 µM
TGI [37]: > 100 µM
TGI [59]: 46.7 µM
TGI [38]: 22.9 µM
TGI [39]: > 100 µM
TGI [57]: 31.1 µM
TGI [40]: > 100 µM
TGI [41]: 32.5 µM
TGI [42]: 39.6 µM
TGI [43]: 32.4 µM
TGI [44]: 42.9 µM
TGI [45]: 89.2 µM
TGI [46]: > 100 µM
TGI [47]: 56.3 µM
TGI [49]: 86 µM
TGI [50]: 40.4 µM
TGI [51]: 29.7 µM
TGI [52]: 37 µM
TGI [53]: 29.3 µM
TGI [58]: 31.1 µM
TGI [54]: 27.5 µM
